From patent US20070077607A1, “Novel screening method” (priority 2003, published 2007) come the findings set out here.

One experiment addresses T1, guinea pig liver tTG (Cavia cutleri, UniProt P08587).
T1 construct: Purified guinea pig liver tTG was either obtained by Sigma-Aldrich or purified in the laboratory; tissue Sigma-Aldrich (or purified in the laboratory according to Leblanc et al., 1999); host or cells: guinea pig liver
T1 sequence (P08587 2-690): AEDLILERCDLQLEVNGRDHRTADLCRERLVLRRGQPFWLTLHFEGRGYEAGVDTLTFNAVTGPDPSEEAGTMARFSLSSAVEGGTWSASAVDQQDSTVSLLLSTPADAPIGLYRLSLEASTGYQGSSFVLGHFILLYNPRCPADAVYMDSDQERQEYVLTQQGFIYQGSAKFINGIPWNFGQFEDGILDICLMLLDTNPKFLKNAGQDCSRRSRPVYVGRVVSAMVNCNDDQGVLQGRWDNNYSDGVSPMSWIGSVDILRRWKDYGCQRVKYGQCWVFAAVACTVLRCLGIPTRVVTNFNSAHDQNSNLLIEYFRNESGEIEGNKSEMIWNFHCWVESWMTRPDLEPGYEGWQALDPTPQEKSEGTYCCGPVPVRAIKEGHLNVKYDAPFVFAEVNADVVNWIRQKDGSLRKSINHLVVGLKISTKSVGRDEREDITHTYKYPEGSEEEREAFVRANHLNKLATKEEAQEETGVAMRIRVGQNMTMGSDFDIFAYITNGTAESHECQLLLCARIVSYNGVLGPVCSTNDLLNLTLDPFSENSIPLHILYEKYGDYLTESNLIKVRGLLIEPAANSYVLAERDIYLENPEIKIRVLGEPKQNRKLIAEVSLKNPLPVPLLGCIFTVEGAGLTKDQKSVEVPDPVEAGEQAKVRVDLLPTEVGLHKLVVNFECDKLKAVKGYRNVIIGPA
The experiment is described as follows: tTG cross-linking activity (incorporation of biotinylated cadaverine into FN). The experiment is classed as biochemical. Here is the method: (§1) The wells of a 96-well plate (0.32 cm^2) were coated with human plasma FN (5 μg/ml) in 50 mM Tris-HCl, pH 7.4, […], by incubation at 4° C. for approximately 15 h. For tTG immobilisation, the FN solution was removed, the wells were washed once in 50 mM Tris-HCl, pH 7.4 and then incubated with purified guinea pig liver tTG (20 μg/ml) in PBS pH 7.4 containing 2 mM EDTA pH 7.4, 100 μl/well. For control wells coated with tTG only, the tTG solution was added directly to tissue culture plastic (TCP). After one hour-incubation at 37° C., the tTG solution was removed and wells were washed once in 50 mM Tris-HCl, pH 7.4 and once in serum-free culture medium before cell seeding. The presence of tTG immobilised on FN was confirmed by an ELISA-type assay (Jones et al. 1997), using Cub 74 (1:5000). Absorbance values were read in an ELISA plate reader at 450 nm (Tecan Spectrafluor). Confirmation that the immobilised tTG was still active as a Ca^2+-dependent ε-(γ-glutamyl)lysine crosslinker was gained by measuring tTG activity with a microtitre assay that is based on the incorporation of biotinylated cadaverine into FN in the presence of 5 mM CaCl2 and 5 mM DTT (Jones et al. 1997) and compared with the activity of free tTG standard. To confirm that the cross-linking activity was Ca^2+-dependent, 5 mM CaCl2 was replaced with 5 mM EDTA pH 7.4. Absorbance values were read at 450 nm and data were expressed as absorbance value with Ca^2+ in the reaction buffer minus background absorbance value with EDTA in the reaction buffer. Similarly to tTG, FN antigen was detected by using a modified ELISA based on a rabbit polyclonal anti-FN antibody (1/5000) followed by peroxidase-labelled anti-rabbit IgG (1/5000).

The next experiment relates to HOB cells. Nature of the experiment: Cell adhesion assay (cell attachment and cell spreading), HOB cells. The conditions noted are these: for inhibition at 5 µM: Homo sapiens. The experiment is classed as cell-based, human. Here is the method:
To evaluate cell attachment and cell spreading exponentially growing cells were detached from substratum by trypsinisation (0.25% (v/v) trypsin in 5 mM EDTA), collected into medium containing a ˜7% (V/V) final concentration of FCS, washed twice with medium without serum and then plated (2×10^4cells/well) onto FN-coated 96-well plates with and without further immobilisation of tTG. After a maximum of 20-minute incubation (to minimise the effect of any endogenous secreted proteins) at 37° C. in a 5% CO2 atmosphere, cells were fixed in 3.7% (w/v) paraformaldehyde in PBS pH 7.4, permeabilised in 0.1% (v/v) Triton X-100 and stained with May Grunwald and Giemsa stain (Jones et al 1997, Verderio et al. 2000). In some cases cells were pre-treated for 15 hours with 1 mM cycloheximide before plating to rule out any effects of endogenous secreted adhesion molecules. Digital images of three non-overlapping fields covering the central portion of each well was captured using a video digital camera (Olympus DP10) and examined using the Image Analysis programme Scion Image (National Institute of Health, USA). A total of at least nine images of separate fields per sample were examined for a total of at least 900 cells in the FN control. The number of cell particles in each field was measured by thresholding and particle analysis setting a minimum particle size of 50 pixels. Spread cells were analysed and quantified by “density slicing” and particle analysis.
Adhesion of cells to FN was decreased by pre-incubation with RGD synthetic peptide (50 μg/ml, ˜75 ∝M, 100 μg/ml ˜150 μM, or 200 μg/ml ˜300 μM) or function blocking anti-integrin antibodies 40 μg/ml anti-β1 integrin (JB1A), 30 μg/ml anti-α5 integrin (P1D6). Detached cells (as described above) were pre-incubated in suspension (2×10^5cells/ml) in serum-free medium containing either RGD peptide or anti-integrins antibodies at 37° C. for 10 minutes in 5% CO2 atmosphere, and then seeded in the presence of the peptides.

A further experiment has as its system human plasma FN. Nature of the experiment: ELISA-type assay of tTG bound to immobilised FN. The experiment is classed as binding. The following applies: 1 mM GTP-γS; ELISA using Cub 74. The method, then:
as §1, with “Confirmation that the immobilised tTG was still active as a Ca^2+-dependent ε-(γ-glutamyl)lysine crosslinker was gained by measuring tTG activity with a microtitre assay that is based on the incorporation of biotinylated cadaverine into FN in the presence of 5 mM CaCl2 and 5 mM DTT (Jones et al. 1997) and compared with the activity of free tTG standard. To confirm that the cross-linking activity was Ca^2+-dependent, 5 mM CaCl2 was replaced with 5 mM EDTA pH 7.4.” left out
A general note: An ELISA detects its analyte on a solid surface through an enzyme-linked reagent.

Experiment [1] has as its target T2, tTG activity found at the HOB cell-surface (Homo sapiens, UniProt P21980).
T2 construct: the low tTG activity found at the HOB cell-surface; endogenous in cells; host or cells: primary human osteoblasts (HOB)
T2 sequence (P21980 1-687): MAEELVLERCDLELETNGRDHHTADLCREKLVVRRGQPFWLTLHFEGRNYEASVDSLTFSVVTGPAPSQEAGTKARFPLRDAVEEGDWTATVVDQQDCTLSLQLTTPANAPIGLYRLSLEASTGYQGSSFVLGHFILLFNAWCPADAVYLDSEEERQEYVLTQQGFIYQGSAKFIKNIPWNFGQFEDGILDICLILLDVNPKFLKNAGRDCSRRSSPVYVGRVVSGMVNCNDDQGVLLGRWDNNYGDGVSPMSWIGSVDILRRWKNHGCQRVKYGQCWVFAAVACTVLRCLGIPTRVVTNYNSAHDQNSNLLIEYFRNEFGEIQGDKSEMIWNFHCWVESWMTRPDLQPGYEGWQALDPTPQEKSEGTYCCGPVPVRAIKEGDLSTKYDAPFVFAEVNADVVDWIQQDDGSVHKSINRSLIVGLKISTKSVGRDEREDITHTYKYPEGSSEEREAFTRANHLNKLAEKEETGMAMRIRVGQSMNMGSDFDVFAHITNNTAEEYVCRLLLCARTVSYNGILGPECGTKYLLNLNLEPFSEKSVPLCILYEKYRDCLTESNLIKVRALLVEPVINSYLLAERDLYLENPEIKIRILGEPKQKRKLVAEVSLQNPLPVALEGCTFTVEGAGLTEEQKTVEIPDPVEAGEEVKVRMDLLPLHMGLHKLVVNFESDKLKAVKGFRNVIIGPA
The experiment is described as follows: tTG activity at the HOB cell-surface. The conditions noted are these: R283 treatment; data not shown. The experiment is classed as cell-based.

The mark [2] stands for this setting: enzyme pre-treatment 15 mU/ml, RGD 100 μg/ml.

In general, inhibition refers to the drop in the measured response relative to a control, in per cent.

Where two headings read alike, the source gives them in different places.

Turning to `O[C@@H](CS)[C@@H](O)CS` [DTT], the “increase of transamidating activity of FN-bound tTG” value on guinea pig liver tTG (DMEM with 5 mM DTT versus DMEM) is given as “approx 6 fold”.

As to `Cn1c2ccccc2c2c3c(c4c5ccccc5n(CCC#N)c4c21)CNC3=O` [GO6976], in the experiment on HOB cells (5 μM GO6976, FN + RGD), the “effect on inhibition of attachment and spreading mediated by the RGD peptide” value was “significantly augment the inhibition”. Moreover, the inhibition at 5 µM in the experiment on HOB cells (5 μM GO6976, RGD peptide, read-out: inhibition of attachment mediated by the tTG-FN complex) was above 90%; with HOB cells (5 μM GO6976, RGD peptide, read-out: inhibition of spreading mediated by the tTG-FN complex) it was around 85%; in the experiment with HOB cells (5 μM GO6976, control peptide RAD, read-out: inhibition of attachment on FN), around 30%; in the experiment with HOB cells (5 μM GO6976, control peptide RAD, read-out: inhibition of spreading on FN), around 30%.

For the compound `Nc1nc2c(ncn2[C@@H]2O[C@H](COP(=O)(O)OP(=O)(O)OP(O)(O)=S)[C@@H](O)[C@H]2O)c(=O)[nH]1` [GTP-γS], the “level of tTG immobilised on FN” value with human plasma FN is “did not significantly alter”. Also, the “transamidating activity of FN-bound tTG” value at guinea pig liver tTG (GTP-γS, DMEM with reducing agent, data not shown) is reported as “acts as transamidating inhibitor”. Also, the “RGD-independent cell attachment and spreading mediated by tTG-FN” value in the experiment with HOB cells (1 mM GTP-γS, RGD 100 μg/ml) is listed as “partially but significantly reduced”.

With `CC(=O)CSc1n(C)cc[n+]1C.[Cl-]` [R283], the “tTG activity at the HOB cell-surface” value in experiment [1] is recorded as “inhibited to negligible values”. In addition, on guinea pig liver tTG (100 μM R283), the “transamidating activity of immobilised tTG” value was “completely blocked”. Further, in the experiment on HOB cells (100 μM R283), the “cell adhesion on FN bound to R283-inactivated tTG relative to adhesion on FN with RGD peptide” value is reported as “twice”. Also, the “cell adhesion on FN bound to R283-inactivated tTG versus without R283” value in the experiment with HOB cells (100 μM R283, with or without RGD peptide) is “not significantly different”.

Consider GRADSP [RAD peptide], for which the “cell attachment on FN compared to untreated cells (RAD 0)” value with HOB cells (200 μg/ml RAD control peptide) is “reduction in cell attachment”.

chondroitinase ABC: the “cell adhesion to FN” value in the experiment with HOB cells (chondroitinase ABC 15 mU/ml) is listed as “no significant affect”. Also, in the experiment on HOB cells (setting [2]), the “RGD-independent cell attachment on tTG-FN” value is “only marginally affected” and the “RGD-independent cell spreading on tTG-FN” value was “did not significantly alter”.
